Measured values published in patent publication US20100076006A1, “Topiramate Plus Naltrexone for the Treatment of Addictive Disorders” (UNIVERSITY OF VIRGINIA PATENT FOUNDATION, priority 2007, published 2010).
Counter-ions that a name gives are not always drawn.

Tests used:
rhesus monkeys = assay: Naltrexone's effects on alcohol drinking in non-human primates, fixed ratio schedule of reinforcement; type: in vivo; conditions: three non food deprived rhesus monkeys, 3 hour sessions, naltrexone 0.1, 0.3, 1.0, 3.0 g/kg, water concurrently available
Procedure: FIG. 3 graphically illustrates the effects of Naltrexone on alcohol consumption in non-human primates (rhesus monkeys). Naltrexone was administered at 0.1 (∘), 0.3 ([…]), 1.0 (□) or 3.0 (▪) […]. The ordinate represents cumulative deliveries as percent change from baseline. The abscissa represents time in 10 minute blocks.
This study was principally conducted as a collaboration with Richard Meisch and Alan Boyle. […] During these 3 hour sessions, both water and alcohol were concurrently available.

[1] = tested on: alcohol-preferring (P) rats; assay: Combined topiramate and naltrexone on alcohol consumption in animal model; type: in vivo; conditions: 8 rats
Procedure: FIG. 8 graphically illustrates the combined effect of topiramate and naltrexone on alcohol consumption in alcohol-preferring (P) rats. Rats received either vehicle, topiramate at 5 mg/kg, topiramate at 10 mg/kg, naltrexone at 1/mg/kg and topiramate at 5 mg/kg, naltrexone at 1/mg/kg and topiramate at 10 mg/kg, or naltrexone at 1 mg/kg. Each data point represents the mean (±SE) of 8 rats as a change from baseline.
No significant differences were observed following vehicle injection. Data are plotted as change from baseline consumption, and each data point represents a mean (±SE) of 8 rats.

alcoholism treatment = conditions: medication alone; cited from earlier work
EOA and LOA alcoholics = conditions: ondansetron 1, 4, 16 μg/kg twice daily (particularly 4 μg/kg), compared with LOA; cited from earlier work
alcohol dependence = conditions: topiramate up to 300 mg per day, 12 weeks, vs. placebo; cited from earlier work

| Compound | alcohol consumption (8% w/v) (rhesus monkeys) | alcohol consumption, change from baseline ([1]; naltrexone alone, 1 mg/kg intraperitoneally) | typical effect sizes (alcoholism treatment) | drinking (EOA and LOA alcoholics) | alcohol consumption, change from baseline ([1]; topiramate alone, 10 mg/kg intraperitoneally, effect not yet significant) | craving (alcohol dependence) | days of abstinence (alcohol dependence) | drinks per day, drinking days, and drinks per drinking day (alcohol dependence) |
| --- | --- | --- | --- | --- | --- | --- | --- | --- |
| O=C1CC[C@@]2(O)[C@H]3Cc4ccc(O)c5c4[C@@]2(CCN3CC2CC2)[C@H]1O5 [naltrexone, 17-(Cyclopropylmethyl)-4,5a-epoxy-3,14-dihydroxymorphinan-6-one hydrochloride] | dose-dependent decreases | did not affect alcohol consumption | 0.2±0.5 |  |  |  |  |  |
| Cc1nccn1CC1CCc2c(c3ccccc3n2C)C1=O (stereo not drawn) [ondansetron, 9-methyl-3-[(2-methyl-1H-imidazol-1-yl)methyl]-1,2,3,9-tetrahydrocarbazol-4-one] |  |  | 0.2±0.5 | significant reductions |  |  |  |  |
| CC1(C)O[C@@H]2[C@@H](CO[C@@]3(COS(N)(=O)=O)OC(C)(C)O[C@@H]23)O1 [topiramate, 2,3:4,5-Bis-O-(1-methylethylidene)-beta-D-fructopyranose sulfamate] |  |  |  |  | only modestly decreased | significantly less | significantly more | significantly fewer |
